ChEMBL document CHEMBL3351773, “Effect of p-aminophenols on tyrosinase activity” (Bioorg Med Chem, 2014)
Calls of active or inactive are those of the source. No cut-off for these calls is given here.

Assays:
[1] = target: T1, Tyrosinase (Agaricus bisporus) (UniProt O42713); assay: (§1) Inhibition of mushroom tyrosinase using L-tyrosine as substrate by spectrophotometry
T1 sequence (whole entry): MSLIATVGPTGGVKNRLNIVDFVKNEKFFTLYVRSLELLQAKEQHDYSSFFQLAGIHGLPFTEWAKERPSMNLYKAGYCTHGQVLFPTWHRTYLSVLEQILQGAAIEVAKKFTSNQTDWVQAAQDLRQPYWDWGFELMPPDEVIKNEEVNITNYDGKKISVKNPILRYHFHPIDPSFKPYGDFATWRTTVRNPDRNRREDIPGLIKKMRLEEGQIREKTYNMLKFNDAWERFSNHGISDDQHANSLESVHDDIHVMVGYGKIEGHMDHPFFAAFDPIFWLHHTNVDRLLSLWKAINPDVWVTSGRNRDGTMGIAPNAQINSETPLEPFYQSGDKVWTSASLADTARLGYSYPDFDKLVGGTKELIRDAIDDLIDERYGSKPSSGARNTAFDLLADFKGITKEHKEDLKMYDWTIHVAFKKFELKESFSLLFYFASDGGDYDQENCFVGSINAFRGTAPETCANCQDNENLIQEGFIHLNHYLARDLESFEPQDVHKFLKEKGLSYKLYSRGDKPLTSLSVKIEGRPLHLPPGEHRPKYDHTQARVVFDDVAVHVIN

Tyrosinase [2] = target: T2, Tyrosinase (Agaricus bisporus, UniProt O42713); assay: as §1
T2 sequence (O42713 whole entry): T1 sequence (whole entry)

[3] = target: T1, Tyrosinase (Agaricus bisporus); assay: (§2) Inhibition of mushroom tyrosinase using L-DOPA as substrate by spectrophotometry relative to control
Tyrosinase [4] = target: T2, Tyrosinase; assay: as §2
[5] = target: T1, Tyrosinase (Agaricus bisporus); assay: Non-competitive inhibition of mushroom tyrosinase using L-tyrosine as substrate by Lineweaver-Burk double reciprocal plot method
[6] = target: T1, Tyrosinase (Agaricus bisporus); assay: Non-competitive inhibition of mushroom tyrosinase using L-DOPA as substrate by Lineweaver-Burk double reciprocal plot method
[7] = target: T1, Tyrosinase (Agaricus bisporus); assay: Inhibition of mushroom tyrosinase using L-tyrosine as substrate at 100 uM by spectrophotometry relative to control
[8] = target: T1, Tyrosinase (Agaricus bisporus); assay: Inhibition of mushroom tyrosinase using L-tyrosine as substrate at 200 uM by spectrophotometry relative to control
[9] = target: T1, Tyrosinase (Agaricus bisporus); assay: Inhibition of mushroom tyrosinase using L-DOPA as substrate at 100 uM by spectrophotometry relative to control
[10] = target: T1, Tyrosinase (Agaricus bisporus); assay: Inhibition of mushroom tyrosinase using L-DOPA as substrate at 200 uM by spectrophotometry relative to control

| inhibition [1] | IC50 (Tyrosinase [2]) [µM] | inhibition [3] | IC50 (Tyrosinase [4]) [µM] | inhibition [5] | inhibition [6] | inhibition [7] [%] | inhibition [8] [%] | inhibition [9] [%] | inhibition [10] [%] | SMILES |
| --- | --- | --- | --- | --- | --- | --- | --- | --- | --- | --- |
| Dose-dependent effect | 5.7 | Dose-dependent effect | 30.1 | Active | Active |  |  |  |  | CCCCCCCCCCNc1ccc(O)cc1 |
| Dose-dependent effect | > 200 | Dose-dependent effect | > 200 | Active | Active | 23 | 27 | 25 | 45 | CCCCCCCCCCCCNc1ccc(O)cc1 |
